Laboratory results reported in PMC9137726, “Thioredoxin Reductase-Type Ferredoxin: NADP^+ Oxidoreductase of Rhodopseudomonas palustris: Potentiometric Characteristics and Reactions with Nonphysiological Oxidants” (Antioxidants, 2022).

Biological target: T1, RpFNR (R. palustris TrxR-type FNR) (Rhodopseudomonas palustris, UniProt Q6N2U4)
T1 construct: gene RPA3954; domains span residues 2-344
Test: steady-state spectrophotometric NADPH:juglone reductase inhibition
Type: biochemical
Settings: read-out: Kis

T1 sequence (Q6N2U4 whole entry, the tested form may be a part): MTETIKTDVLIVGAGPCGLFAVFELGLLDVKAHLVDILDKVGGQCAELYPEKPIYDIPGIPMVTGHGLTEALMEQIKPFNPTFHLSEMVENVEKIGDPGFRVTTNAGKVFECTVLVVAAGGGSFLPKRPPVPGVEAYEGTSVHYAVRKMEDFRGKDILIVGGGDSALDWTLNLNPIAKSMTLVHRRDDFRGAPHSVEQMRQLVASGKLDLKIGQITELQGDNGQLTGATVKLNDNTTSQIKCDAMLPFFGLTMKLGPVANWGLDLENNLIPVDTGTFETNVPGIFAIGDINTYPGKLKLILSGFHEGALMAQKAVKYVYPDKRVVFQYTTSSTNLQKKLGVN

SMILES: NC(=O)c1ccc[n+]([C@@H]2O[C@H](COP(=O)(O)OP(=O)(O)OC[C@H]3O[C@@H](n4cnc5c(N)ncnc54)[C@H](OP(=O)(O)O)[C@@H]3O)[C@@H](O)[C@H]2O)c1 [NADP^+]
- Ki: 150 ± 10 µM
